Measured values as given in patent publication US9617240B2 (TEIJIN PHARMA LIMITED, priority 2013, dated 2017).

How the values were obtained:
[1] = molecular target: T1, oxidase type xanthine oxidase (derived from buttermilk) (Bos taurus, UniProt P80457); test: Xanthine oxidase inhibitory activity (absorbance change at 290 nm); assay type: biochemical; conditions: xanthine substrate, 100 mM phosphate buffer, absorbance at 290 nm for 5 minutes; read-out: Inhibitory Activity (50% inhibitory concentration with respect to oxidase type xanthine oxidase)
T1 construct: oxidase type xanthine oxidase (derived from buttermilk, supplied by Calbiochem Novabiochem Corp.); purchased Calbiochem Novabiochem Corp; host or cells: buttermilk (natural source)
T1 sequence (P80457 whole entry): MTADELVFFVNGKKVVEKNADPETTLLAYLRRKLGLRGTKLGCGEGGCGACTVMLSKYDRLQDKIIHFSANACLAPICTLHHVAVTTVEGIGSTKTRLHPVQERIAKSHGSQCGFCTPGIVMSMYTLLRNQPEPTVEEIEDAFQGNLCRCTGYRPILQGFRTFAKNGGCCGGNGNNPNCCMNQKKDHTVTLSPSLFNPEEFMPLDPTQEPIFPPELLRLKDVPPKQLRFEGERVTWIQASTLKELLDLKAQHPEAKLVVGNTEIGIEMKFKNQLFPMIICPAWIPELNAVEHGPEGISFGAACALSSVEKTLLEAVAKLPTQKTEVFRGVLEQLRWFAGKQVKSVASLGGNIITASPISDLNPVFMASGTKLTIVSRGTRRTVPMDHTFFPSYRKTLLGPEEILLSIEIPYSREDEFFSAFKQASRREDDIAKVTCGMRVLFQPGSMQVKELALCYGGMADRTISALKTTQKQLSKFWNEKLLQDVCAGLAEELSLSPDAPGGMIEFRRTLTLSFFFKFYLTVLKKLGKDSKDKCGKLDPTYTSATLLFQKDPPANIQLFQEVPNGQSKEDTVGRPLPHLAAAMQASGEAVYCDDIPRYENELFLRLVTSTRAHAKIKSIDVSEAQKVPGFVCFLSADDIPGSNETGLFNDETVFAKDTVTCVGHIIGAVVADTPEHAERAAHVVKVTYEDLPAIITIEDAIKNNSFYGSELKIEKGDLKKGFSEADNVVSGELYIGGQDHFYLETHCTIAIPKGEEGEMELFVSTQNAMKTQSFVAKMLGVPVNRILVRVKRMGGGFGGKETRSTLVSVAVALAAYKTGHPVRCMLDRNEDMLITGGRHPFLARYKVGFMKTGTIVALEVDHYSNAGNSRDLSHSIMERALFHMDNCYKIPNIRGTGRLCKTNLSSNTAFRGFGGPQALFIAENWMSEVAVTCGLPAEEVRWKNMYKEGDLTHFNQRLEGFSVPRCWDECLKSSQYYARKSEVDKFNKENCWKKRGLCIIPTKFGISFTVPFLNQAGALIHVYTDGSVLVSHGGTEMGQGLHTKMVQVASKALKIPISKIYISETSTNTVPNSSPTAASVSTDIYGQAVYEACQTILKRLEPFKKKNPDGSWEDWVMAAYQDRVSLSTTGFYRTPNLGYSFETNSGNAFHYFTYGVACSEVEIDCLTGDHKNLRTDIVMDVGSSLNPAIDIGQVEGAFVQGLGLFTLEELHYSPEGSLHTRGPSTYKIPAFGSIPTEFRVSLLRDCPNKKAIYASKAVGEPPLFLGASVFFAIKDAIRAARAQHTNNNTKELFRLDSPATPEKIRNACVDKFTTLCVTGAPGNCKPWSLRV
Method in brief: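 Buttermilk xanthine oxidase (stock 30.6 mU/mL) was added to 30 μM xanthine stock in 100 mM phosphate buffer containing test compound (1% DMSO). Absorbance change at 290 nm was followed for 5 minutes. Inhibition was calculated against a DMSO control, and IC50 came from dose-response fitting.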

[2] = test system: level of uric acid in the blood; test: Hypouricemic effect in normal rats; assay type: in vivo, Sprague-Dawley male rats; conditions: oral gavage, 1 mg/kg
Description: A test compound suspended in a 0.5% methylcellulose solution was administered to 8 to 9 week-old Sprague-Dawley male rats (Japan Charles River Co.) by oral gavage administration using a feeding needle. After the blood was collected from the tail vein at 6 hours and 24 hours after administration, the plasma was separated. The level of uric acid in the blood sample was measured by uricase method using an absorption spectrometer as well as a uric acid determination kit (L type Wako UA F: Wako Pure Chemical Industries, Ltd.). The percentage of hypouricemic effect was determined by the following expression: Percentage of hypouricemic effect (%)=(Level of uric acid of the control animal−Level of uric acid of the test compound-administered animal)×100/Level of uric acid of the control animal.

[3] = test system: level of uric acid in the blood; test: Hypouricemic effect in Cebus apella monkeys; assay type: in vivo; conditions: gavage, 1 mg/kg
Description: To Cebus apella monkeys, test compounds suspended in 0.5% methylcellulose solution were administered by gavage into the stomach through the nasal cavity using a disposable catheter and a syringe. Blood was taken from the saphenous vein at 4 hours and 24 hours after the administration, after which the plasma was separated. The level of uric acid in the blood was measured using a uric acid measurement kit (L type Wako UA F: Wako Pure Chemical Industries, Ltd.) by the uricase method using an absorption spectrometer and the percentage of hypouricemic effect was determined by the following expression: Percentage of hypouricemic effect (%)=(Level of uric acid of the control animal−Level of uric acid of the test compound-administered animal)×100/Level of uric acid of the control animal.

[4] = test system: level of uric acid in the plasma; test: Hypouricemic effect in beagle dogs; assay type: in vivo; conditions: oral gavage, 3 mg/kg, 24 hours after administration
Description: The hypouricemic effect of the compound (I) in beagle dogs was confirmed. A test compound suspended in a 0.5% methyl cellulose solution was orally administered by gavage to beagle dogs (Kitayama Labes). Blood was drawn from the cephalic vein at 24 hours after administration and plasma was separated. The level of uric acid in the plasma sample was measured using an LC-MS/MS method and the percentage of hypouricemic effect was determined by the following expression: Percentage of hypouricemic effect (%)=(Level of uric acid of the control animal−Level of uric acid of the test compound-administered animal)×100/Level of uric acid of the control animal.

In the case of `N#Cc1cc(-n2cc(C(=O)O)cn2)ncc1-c1ccccc1` [Compound 1, 1-(4-cyano-5-phenylpyridin-2-yl)-1H-pyrazole-4-carboxylic acid], the IC50 [1] is reported as 1 to 5 nM, the “Percentage of hypouricemic effect” value ([2]; 6 hours after administration) is reported as no less than 70% and the “Percentage of hypouricemic effect” value ([2]; 24 hours after administration) is reported as no less than 70%. For the same compound, the “Percentage of hypouricemic effect” value ([3]; 4 hours after administration) was no less than 50%, the “Percentage of hypouricemic effect” value ([3]; 24 hours after administration) was no less than 50% and the “Percentage of hypouricemic effect” value [4] was no less than 50%.
For `N#Cc1cc(-n2cc(C(=O)O)cn2)ncc1-c1ccc(F)cc1` [Compound 29, 1-[4-cyano-5-(4-fluorophenyl)pyridin-2-yl]-1H-pyrazole-4-carboxylic acid], the IC50 [1] was 1 to 5 nM.
For `CCOc1ccccc1-c1cnc(-n2cc(C(=O)O)cn2)cc1C#N` [Compound 3, 1-[4-cyano-5-(2-ethoxyphenyl)pyridin-2-yl]-1H-pyrazole-4-carboxylic acid], the IC50 [1] was 5 to 10 nM.
`N#Cc1nc(-n2cc(C(=O)O)cn2)ccc1-c1ccc(F)cc1F` [Compound 90, 1-[6-cyano-5-(2,4-difluorophenyl)pyridin-2-yl]-1H-pyrazole-4-carboxylic acid] was tested, and the IC50 [1] was no less than 10 nM.
`COc1ccncc1-c1cnc(-n2cc(C(=O)O)cn2)cc1C#N` [Compound 58, 1-[4-cyano-5-(4-methoxypyridin-3-yl)pyridin-2-yl]-1H-pyrazole-4-carboxylic acid] showed an IC50 [1] of no less than 10 nM.
Work on `Cc1ccccc1-c1cnc(-n2cc(C(=O)O)cn2)cc1C#N` [Compound 4, 1-[4-cyano-5-(2-methylphenyl)pyridin-2-yl]-1H-pyrazole-4-carboxylic acid] yielded an IC50 [1] of 5 to 10 nM.
For `Cc1nn(-c2cc(C#N)c(-c3ccccc3)cn2)c(C)c1C(=O)O` [Compound 28, 1-(4-cyano-5-phenylpyridin-2-yl)-3,5-dimethyl-1H-pyrazole-4-carboxylic acid], the IC50 [1] was no less than 10 nM.
Work on `N#Cc1cc(-n2cc(C(=O)O)cn2)ncc1-c1ccc(F)c(Cl)c1` [Compound 40, 1-[4-cyano-5-(3-chloro-4-fluorophenyl)pyridin-2-yl]-1H-pyrazole-4-carboxylic acid] yielded an IC50 [1] of 5 to 10 nM.
For `N#Cc1cc(-n2cc(C(=O)O)cn2)ncc1-c1ccc(O)cc1` [Compound 16, 1-[4-cyano-5-(4-hydroxyphenyl)pyridin-2-yl]-1H-pyrazole-4-carboxylic acid], the IC50 [1] was 1 to 5 nM.
With `N#Cc1cc(-n2cc(C(=O)O)cn2)ncc1-c1cccc(OC(F)F)c1` [Compound 46, 1-{4-cyano-5-[3-(difluoromethoxy)phenyl]pyridin-2-yl}-1H-pyrazole-4-carboxylic acid] the IC50 [1] was 5 to 10 nM.
In the case of `N#Cc1cc(-n2cc(C(=O)O)cn2)ncc1-c1ccc(C(=O)c2ccccc2)cc1` [Compound 73, 1-[5-(4-benzoylphenyl)-4-cyanopyridin-2-yl]-1H-pyrazole-4-carboxylic acid], the IC50 [1] is reported as 1 to 5 nM.
With `N#Cc1cc(-n2cc(C(=O)O)c(N)n2)ncc1-c1ccc(F)cc1F` [Compound 105, 3-amino-1-[4-cyano-5-(2,4-difluorophenyl)pyridin-2-yl]-1H-pyrazole-4-carboxylic acid] the IC50 [1] was 1 to 5 nM.
Compound `COc1ccc(F)c(-c2cnc(-n3cc(C(=O)O)c(N)n3)cc2C#N)c1` [Compound 107, 3-amino-1-[4-cyano-5-(2-fluoro-5-methoxyphenyl)pyridine-2-yl]-1H-pyrazole-4-carboxylic acid] has an IC50 [1] of 1 to 5 nM.
Work on `N#Cc1nc(-n2cc(C(=O)O)cn2)ccc1-c1ccccc1` [Compound 85, 1-(6-cyano-5-phenylpyridin-2-yl)-1H-pyrazole-4-carboxylic acid] yielded an IC50 [1] of no less than 10 nM.
